Source: ChEMBL document CHEMBL1201862, “PubChem BioAssay data set” (2004)
Activity calls are given as the source filed them.

Tests used:
Mu-type opioid receptor [1] = biological target: T1, Mu-type opioid receptor (Homo sapiens, UniProt P35372); assay: HTS Image-Based Screen for Agonists of the MOR Receptor. [Related pubchem assays (depositor defined):AID1777, AID1785, AID1786, AID2133]; format: functional
[2] = biological target: T2, Kappa-type opioid receptor (Homo sapiens, UniProt P41145); format: functional
[3] = biological target: T3, Delta-type opioid receptor (Homo sapiens, UniProt P41143); assay: HTS Image-Based Screen for Agonists of the DOR Receptor. [Related pubchem assays (depositor defined):AID1777, AID1786, AID2133]; format: functional
[4] = biological target: T2, Kappa-type opioid receptor; format: functional; remark: listed apart in the source
[5] = biological target: T3, Delta-type opioid receptor; assay: HTS Image-Based Screen for Antagonists of the DOR Receptor. [Related pubchem assays (depositor defined):AID1777, AID1785, AID1786, AID2133]; format: functional
Beta-galactosidase = Beta-galactosidase (Escherichia coli, UniProt Q8VNN2); format: functional
[6] = biological target: T4, Corticotropin-releasing factor receptor 2/Corticotropin-releasing factor-binding protein (Homo sapiens, UniProt P24387+Q13324); assay: activators of CRF receptor 2 with binding protein – uHTS hits, confirmation (AID 602473); format: functional; settings: read-out: EC50_Mean
T4 sequence (Q13324 whole entry): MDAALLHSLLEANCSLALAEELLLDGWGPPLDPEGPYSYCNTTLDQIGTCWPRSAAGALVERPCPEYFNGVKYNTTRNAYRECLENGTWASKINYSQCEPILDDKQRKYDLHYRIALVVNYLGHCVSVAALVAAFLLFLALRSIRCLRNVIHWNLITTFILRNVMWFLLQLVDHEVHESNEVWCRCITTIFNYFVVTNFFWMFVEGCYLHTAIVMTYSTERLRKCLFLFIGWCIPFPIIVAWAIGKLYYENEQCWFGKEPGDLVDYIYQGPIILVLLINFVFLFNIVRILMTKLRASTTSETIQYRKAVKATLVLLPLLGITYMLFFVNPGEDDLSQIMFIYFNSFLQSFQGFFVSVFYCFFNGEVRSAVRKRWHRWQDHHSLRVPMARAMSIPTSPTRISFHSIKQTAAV
T4 sequence (P24387 whole entry): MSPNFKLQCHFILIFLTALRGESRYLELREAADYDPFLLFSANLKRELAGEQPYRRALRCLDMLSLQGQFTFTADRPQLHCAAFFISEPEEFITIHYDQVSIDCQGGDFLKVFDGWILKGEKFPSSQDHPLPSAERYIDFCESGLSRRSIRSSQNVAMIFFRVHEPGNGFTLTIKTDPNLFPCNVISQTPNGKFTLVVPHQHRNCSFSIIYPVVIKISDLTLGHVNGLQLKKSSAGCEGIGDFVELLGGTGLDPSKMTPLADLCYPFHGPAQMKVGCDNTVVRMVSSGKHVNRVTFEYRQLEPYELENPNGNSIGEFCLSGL

[7] = CRF-BP/CRF-R2 complex antagonists, dose response, cell-based, uHTS hits, 384-well (AID 651639); format: functional, Homo sapiens; settings: read-out: IC50_Mean
[8] = inhibitors of Bluetongue virus cytopathic effect, confirmation, arbovirus, BSR cells (AID 1250); format: functional;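 note: protection from viral cytopathic effect measured as cell viability by ATP luminescence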
[9] = cytotoxicity in HMLE control line with eGFP shRNA, dose response, counter-screen for HMLE_sh_ECad selective toxicity project, cell-based, HMLE_sh_eGFP, luminescence (AID 463074); format: functional, Homo sapiens;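 note: HMLE human mammary epithelial cells expressing control shRNA against eGFP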
[10] = Luminescence Cell-Based Dose Retest to Confirm Inhibitors of Cancer Stem Cells. [Related pubchem assays (depositor defined):AID2717, AID2721]; format: functional; settings: Homo sapiens
[11] = biological target: T4, Corticotropin-releasing factor receptor 2/Corticotropin-releasing factor-binding protein; assay: Dose Response confirmation of uHTS hits for small molecule antagonists of the CRF-binding protein and CRF-R2 receptor complex.; format: functional; settings: read-out: IC50_Mean
[12] = biological target: T5, Heat shock factor protein 1 (Mus musculus, UniProt P38532); assay: inhibition of MG132-induced HSE-luciferase signal, confirmation, cell-based, NIH3T3, luminescence, dose retest (AID 2382); format: functional;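 note: NIH3T3 fibroblasts with HSF1-driven luciferase reporter stressed by proteasome inhibitor MG132; luminescence from HSF1-driven luciferase expression after 8 hours of MG132 stress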
T5 sequence (P38532 whole entry): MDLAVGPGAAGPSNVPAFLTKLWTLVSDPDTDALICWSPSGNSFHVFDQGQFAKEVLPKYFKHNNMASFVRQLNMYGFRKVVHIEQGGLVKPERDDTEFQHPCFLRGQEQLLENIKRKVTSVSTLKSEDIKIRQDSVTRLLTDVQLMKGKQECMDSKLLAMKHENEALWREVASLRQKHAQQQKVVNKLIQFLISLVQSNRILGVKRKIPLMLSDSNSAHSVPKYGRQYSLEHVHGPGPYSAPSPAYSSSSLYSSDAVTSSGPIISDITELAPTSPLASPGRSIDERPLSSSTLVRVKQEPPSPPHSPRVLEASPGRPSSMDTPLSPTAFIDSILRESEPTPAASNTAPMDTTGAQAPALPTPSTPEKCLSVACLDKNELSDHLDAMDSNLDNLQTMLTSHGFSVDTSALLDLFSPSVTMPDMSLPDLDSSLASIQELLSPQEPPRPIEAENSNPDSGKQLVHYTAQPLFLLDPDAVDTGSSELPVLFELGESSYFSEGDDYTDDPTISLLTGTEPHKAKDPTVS

[13] = biological target: UDP-galactopyranose mutase (Mycobacterium tuberculosis, UniProt P9WIQ1); assay: Inhibitors of Mycobacterium tuberculosis UDP-galactopyranose mutase (UGM) enzyme Measured in Biochemical System Using Plate Reader - 2105-02_Inhibitor_Dose_CherryPick_Activity. [Related pubchem assays (depositor defined):AID504439]
[14] = biological target: Nucleotide-binding oligomerization domain-containing protein 2 (Homo sapiens, UniProt Q9HC29); assay: NOD2 signaling inhibitors, cell-based, luminescence, uHTS, HEK293 (AID 1566); format: functional
HEK293 [15] = assay: cells; format: functional, cell-based; settings: Homo sapiens
HEK293 [16] = assay: NOD1 signaling inhibitors, primary screen, cell-based, luminescence, uHTS (AID 1578); format: functional; settings: Homo sapiens
HEK293 [17] = assay: cells; format: functional, cell-based; settings: Homo sapiens; remark: listed apart in the source
HEK293 [18] = assay: cells; settings: Homo sapiens
HEK293 [19] = assay: cells; format: functional, cell-based; settings: Homo sapiens; remark: listed apart in the source
Tumor necrosis factor = Tumor necrosis factor (Homo sapiens, UniProt P01375); assay: TNFa-triggered NF-kB activation inhibitors, SAR follow-up, cell-based, revised (AID 2337); format: functional
[20] = biological target: Nucleotide-binding oligomerization domain-containing protein 1 (Homo sapiens, UniProt Q9Y239); assay: NOD1 signaling inhibitors, SAR follow-up, revised (AID 2333); format: functional
HEK293 [21] = assay: NOD2 signaling inhibitors in MDP-stimulated cells, cell-based, uHTS, luminescence (AID 2001); format: functional; settings: Homo sapiens
[22] = biological target: T3, Delta-type opioid receptor; assay: SAR Analysis of Agonists of the DOR Receptor using an Image-Based Assay - Set 2. [Related pubchem assays (depositor defined):AID1777, AID1785, AID1786, AID1966, AID2133, AID2136, AID2284, AID2285, AID2370]; format: functional
Mu-type opioid receptor [23] = biological target: T1, Mu-type opioid receptor; assay: SAR Analysis of Agonists of the MOR Receptor using an Image-Based Assay - Set 2. [Related pubchem assays (depositor defined):AID1777, AID1785, AID1786, AID1966, AID2133, AID2136, AID2284, AID2285, AID2352]; format: functional
[24] = biological target: T3, Delta-type opioid receptor; assay: SAR Analysis of Antagonists of the DOR Receptor using an Image-Based Assay - Set 2. [Related pubchem assays (depositor defined):AID1777, AID1785, AID1786, AID1966, AID2133, AID2136, AID2284, AID2285, AID2357]; format: functional
Mu-type opioid receptor [25] = biological target: T1, Mu-type opioid receptor; assay: SAR Analysis of Antagonists of the MOR Receptor using an Image-Based Assay - Set 2. [Related pubchem assays (depositor defined):AID1777, AID1785, AID1786, AID1966, AID2133, AID2136, AID2284, AID2285, AID2420]; format: functional
[26] = biological target: T6, Intestinal-type alkaline phosphatase (Homo sapiens, UniProt P09923); assay: human intestinal alkaline phosphatase activators, dose response, biochemical, luminescence, uHTS hits (AID 463120); format: functional
[27] = biological target: T6, Intestinal-type alkaline phosphatase; assay: human IAP activators, dose response, biochemical, luminescent, uHTS hits, set 2 (AID 488817); format: functional;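 note: potency of activators that raise enzyme activity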
[28] = biological target: T7, Alkaline phosphatase, tissue-nonspecific isozyme (Homo sapiens, UniProt P05186); assay: TNAP enzyme activators, dose response, selectivity assay for human IAP activator project, biochemical, TNAP isozyme, human IAP uHTS hits (AID 488886); format: functional;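 note: potency of compounds raising TNAP activity as a selectivity check on IAP activators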
T7 sequence (P05186 whole entry): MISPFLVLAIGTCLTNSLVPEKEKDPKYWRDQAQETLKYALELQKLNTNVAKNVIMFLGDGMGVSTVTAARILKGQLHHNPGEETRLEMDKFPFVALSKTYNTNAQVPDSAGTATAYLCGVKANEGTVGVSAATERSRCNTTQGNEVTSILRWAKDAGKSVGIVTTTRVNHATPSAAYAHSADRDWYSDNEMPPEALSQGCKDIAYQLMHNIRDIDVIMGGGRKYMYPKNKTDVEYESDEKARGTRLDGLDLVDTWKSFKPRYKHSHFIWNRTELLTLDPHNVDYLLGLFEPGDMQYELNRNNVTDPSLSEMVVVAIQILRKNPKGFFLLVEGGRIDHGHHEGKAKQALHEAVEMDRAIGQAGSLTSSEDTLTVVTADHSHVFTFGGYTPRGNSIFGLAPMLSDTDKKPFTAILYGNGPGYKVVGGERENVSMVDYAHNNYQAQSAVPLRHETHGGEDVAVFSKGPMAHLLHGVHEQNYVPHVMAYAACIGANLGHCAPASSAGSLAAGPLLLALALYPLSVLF

[29] = biological target: Intestinal-type alkaline phosphatase (Mus musculus, UniProt P24822); assay: PubChem AID 488874; format: functional
Sequence of Intestinal-type alkaline phosphatase (Mus musculus, UniProt P24822) (P24822 whole entry): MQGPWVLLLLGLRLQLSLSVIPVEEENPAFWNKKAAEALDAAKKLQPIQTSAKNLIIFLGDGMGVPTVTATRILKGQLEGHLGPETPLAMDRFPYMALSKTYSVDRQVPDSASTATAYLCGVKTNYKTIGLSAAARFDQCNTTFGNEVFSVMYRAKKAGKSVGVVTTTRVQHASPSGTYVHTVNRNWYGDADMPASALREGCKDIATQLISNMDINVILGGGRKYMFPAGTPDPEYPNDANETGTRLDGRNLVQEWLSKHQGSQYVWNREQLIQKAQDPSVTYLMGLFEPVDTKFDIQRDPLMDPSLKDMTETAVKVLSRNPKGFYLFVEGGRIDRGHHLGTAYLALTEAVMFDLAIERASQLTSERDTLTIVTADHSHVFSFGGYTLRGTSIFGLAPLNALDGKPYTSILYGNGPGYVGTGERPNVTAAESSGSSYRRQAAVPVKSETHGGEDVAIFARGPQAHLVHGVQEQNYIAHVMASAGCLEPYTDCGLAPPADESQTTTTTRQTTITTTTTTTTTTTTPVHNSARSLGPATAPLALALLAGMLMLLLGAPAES

T3 sequence (P41143 whole entry): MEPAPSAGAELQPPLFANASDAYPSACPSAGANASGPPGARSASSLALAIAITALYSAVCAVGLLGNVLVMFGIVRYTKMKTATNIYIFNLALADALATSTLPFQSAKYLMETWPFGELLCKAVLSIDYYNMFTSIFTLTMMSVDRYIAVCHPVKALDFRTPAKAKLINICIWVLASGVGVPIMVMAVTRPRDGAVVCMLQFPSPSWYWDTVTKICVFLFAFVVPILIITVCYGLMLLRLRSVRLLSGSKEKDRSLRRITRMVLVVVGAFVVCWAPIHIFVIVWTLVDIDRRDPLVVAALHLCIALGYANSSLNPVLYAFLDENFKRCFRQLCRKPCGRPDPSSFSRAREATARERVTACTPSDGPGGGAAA
T1 sequence (P35372 whole entry): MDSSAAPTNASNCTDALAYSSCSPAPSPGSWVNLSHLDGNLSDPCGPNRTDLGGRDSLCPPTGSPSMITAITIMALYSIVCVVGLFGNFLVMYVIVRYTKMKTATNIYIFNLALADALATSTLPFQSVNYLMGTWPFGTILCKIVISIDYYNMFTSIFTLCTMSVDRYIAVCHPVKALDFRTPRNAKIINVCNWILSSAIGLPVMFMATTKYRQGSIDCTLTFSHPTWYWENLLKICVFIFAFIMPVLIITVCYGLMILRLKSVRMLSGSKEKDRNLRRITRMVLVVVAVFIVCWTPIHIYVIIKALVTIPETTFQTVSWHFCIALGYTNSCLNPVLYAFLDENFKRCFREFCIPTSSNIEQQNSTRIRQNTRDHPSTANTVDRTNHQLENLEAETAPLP
T2 sequence (P41145 whole entry): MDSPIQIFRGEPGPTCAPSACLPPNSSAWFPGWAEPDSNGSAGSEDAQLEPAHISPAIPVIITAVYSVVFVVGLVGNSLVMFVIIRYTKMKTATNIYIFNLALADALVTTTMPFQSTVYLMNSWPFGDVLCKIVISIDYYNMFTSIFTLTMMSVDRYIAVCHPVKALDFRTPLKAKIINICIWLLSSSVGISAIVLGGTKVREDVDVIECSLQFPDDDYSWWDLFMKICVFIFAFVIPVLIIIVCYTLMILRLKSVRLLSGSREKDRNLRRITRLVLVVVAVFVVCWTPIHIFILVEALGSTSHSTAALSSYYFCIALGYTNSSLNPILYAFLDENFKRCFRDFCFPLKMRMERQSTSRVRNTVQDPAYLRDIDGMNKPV
T6 sequence (P09923 whole entry): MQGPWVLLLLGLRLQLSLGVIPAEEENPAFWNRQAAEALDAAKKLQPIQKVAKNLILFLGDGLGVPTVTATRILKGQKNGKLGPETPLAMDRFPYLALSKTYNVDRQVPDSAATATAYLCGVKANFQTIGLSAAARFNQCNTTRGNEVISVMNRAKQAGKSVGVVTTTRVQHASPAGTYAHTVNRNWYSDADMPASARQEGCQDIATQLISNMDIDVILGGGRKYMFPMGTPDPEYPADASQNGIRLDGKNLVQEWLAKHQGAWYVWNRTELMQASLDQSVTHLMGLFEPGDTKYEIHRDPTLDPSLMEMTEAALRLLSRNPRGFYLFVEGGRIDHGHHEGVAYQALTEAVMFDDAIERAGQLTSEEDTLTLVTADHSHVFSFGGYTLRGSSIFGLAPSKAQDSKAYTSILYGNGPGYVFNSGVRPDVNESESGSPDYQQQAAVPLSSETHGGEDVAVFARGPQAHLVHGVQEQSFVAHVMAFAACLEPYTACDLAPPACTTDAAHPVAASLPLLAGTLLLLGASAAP
Sequence of Tumor necrosis factor (P01375 whole entry, the tested form may be a part): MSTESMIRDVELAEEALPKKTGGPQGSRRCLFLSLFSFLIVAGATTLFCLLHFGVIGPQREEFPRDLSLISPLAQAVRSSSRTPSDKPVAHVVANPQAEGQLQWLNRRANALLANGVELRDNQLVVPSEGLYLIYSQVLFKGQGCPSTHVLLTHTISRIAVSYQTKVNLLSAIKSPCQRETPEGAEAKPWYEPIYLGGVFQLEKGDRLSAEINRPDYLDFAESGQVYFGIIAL
Sequence of Beta-galactosidase (Q8VNN2 whole entry): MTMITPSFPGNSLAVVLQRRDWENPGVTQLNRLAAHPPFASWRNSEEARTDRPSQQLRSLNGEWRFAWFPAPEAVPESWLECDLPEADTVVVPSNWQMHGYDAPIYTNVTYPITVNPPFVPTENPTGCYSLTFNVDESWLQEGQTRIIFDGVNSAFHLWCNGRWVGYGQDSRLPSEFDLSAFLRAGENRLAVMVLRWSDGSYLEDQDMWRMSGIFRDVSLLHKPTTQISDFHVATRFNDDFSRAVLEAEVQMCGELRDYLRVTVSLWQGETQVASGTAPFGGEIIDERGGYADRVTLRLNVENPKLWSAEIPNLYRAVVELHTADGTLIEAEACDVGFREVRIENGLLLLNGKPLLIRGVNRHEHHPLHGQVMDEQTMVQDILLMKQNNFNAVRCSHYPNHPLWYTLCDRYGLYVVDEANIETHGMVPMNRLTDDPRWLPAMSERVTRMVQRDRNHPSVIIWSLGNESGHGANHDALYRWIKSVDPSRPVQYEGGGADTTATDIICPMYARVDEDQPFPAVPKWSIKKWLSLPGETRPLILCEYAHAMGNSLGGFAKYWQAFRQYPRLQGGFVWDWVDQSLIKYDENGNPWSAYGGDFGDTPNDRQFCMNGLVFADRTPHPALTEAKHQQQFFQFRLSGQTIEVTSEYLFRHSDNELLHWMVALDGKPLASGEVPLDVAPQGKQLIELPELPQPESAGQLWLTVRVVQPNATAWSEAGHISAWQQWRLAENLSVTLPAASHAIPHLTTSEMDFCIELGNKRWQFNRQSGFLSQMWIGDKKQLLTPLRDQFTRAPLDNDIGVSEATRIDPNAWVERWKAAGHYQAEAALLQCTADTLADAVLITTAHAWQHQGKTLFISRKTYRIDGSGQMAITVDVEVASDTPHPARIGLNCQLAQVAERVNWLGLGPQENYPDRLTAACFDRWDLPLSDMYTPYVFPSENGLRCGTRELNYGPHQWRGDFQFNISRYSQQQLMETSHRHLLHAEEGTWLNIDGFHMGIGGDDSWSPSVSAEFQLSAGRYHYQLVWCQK
Sequence of UDP-galactopyranose mutase (P9WIQ1 whole entry, the tested form may be a part): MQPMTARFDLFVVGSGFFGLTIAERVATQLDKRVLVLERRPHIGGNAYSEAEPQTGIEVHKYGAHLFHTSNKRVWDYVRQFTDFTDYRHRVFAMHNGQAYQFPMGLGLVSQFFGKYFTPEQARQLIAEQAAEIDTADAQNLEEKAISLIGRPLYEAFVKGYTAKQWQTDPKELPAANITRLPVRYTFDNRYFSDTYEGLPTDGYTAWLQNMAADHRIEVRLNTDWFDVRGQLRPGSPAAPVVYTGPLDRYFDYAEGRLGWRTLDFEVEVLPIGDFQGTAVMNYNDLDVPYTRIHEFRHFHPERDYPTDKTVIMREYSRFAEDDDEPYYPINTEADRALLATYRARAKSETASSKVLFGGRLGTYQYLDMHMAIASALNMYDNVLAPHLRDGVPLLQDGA
Sequence of Nucleotide-binding oligomerization domain-containing protein 1 (Q9Y239 whole entry, the tested form may be a part): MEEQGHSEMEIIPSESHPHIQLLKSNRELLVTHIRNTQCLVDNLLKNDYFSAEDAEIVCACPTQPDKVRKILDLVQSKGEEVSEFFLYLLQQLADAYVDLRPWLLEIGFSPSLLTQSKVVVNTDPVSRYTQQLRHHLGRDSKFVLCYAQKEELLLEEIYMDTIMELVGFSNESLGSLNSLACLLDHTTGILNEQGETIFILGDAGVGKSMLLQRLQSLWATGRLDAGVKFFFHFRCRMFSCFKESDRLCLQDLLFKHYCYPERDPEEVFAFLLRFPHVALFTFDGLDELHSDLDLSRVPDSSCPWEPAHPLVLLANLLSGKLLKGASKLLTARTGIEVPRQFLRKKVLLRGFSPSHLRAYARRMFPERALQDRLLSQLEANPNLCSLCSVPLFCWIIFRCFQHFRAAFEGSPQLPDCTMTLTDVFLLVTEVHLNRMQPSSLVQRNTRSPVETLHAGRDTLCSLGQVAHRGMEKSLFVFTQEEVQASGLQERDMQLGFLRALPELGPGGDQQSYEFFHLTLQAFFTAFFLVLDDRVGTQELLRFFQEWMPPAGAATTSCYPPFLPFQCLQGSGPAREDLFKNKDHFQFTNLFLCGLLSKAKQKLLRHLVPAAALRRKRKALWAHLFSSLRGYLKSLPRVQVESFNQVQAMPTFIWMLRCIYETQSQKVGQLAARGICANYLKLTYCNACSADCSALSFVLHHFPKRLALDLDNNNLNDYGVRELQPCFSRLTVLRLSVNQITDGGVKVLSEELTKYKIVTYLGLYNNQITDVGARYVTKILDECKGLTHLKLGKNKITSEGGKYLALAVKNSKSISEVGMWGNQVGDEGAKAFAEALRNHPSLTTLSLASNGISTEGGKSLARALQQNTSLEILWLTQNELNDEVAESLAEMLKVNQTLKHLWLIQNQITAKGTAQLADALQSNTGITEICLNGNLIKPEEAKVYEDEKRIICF

Which results are given for `CCCN(CCC)CC(O)Cn1cc(/C=C/C(=O)c2cccs2)c2ccccc21` (stereo unspecified)?
EC50 (Mu-type opioid receptor [1]): > 32 µM (inactive); IC50 [2]: 4.14 µM; EC50 [3]: > 32 µM (inactive); IC50 [4]: 11.3 µM (active); IC50 [5]: > 32 µM (inactive); EC50 (Beta-galactosidase): > 31.5 µM (inactive)

For `CC(C)Cc1csc(NC(=O)c2ccc(F)cc2)c1C(=O)O`, which EC50 [6] is on record?
The EC50 was > 53 µM (inactive).

And the IC50 [7]?
Its IC50 is > 20 µM (inactive).

And the IC50 [8]?
The IC50 was 36.3 µM (active).

And the AC50 [9]?
The AC50 was 52.3 µM (active).

And the AC50 [10]?
Its AC50 is 25.9 µM (active).

What about the IC50 [11] of the same compound?
Its IC50 is 10.3 µM (active).

And the EC50 [12]?
Its EC50 is 9.87 µM (active).

Which AC50 [13] does the source give for `COCCCNC(=O)Cn1cc(/C=C2\C(=O)NC(=O)N(c3ccccc3F)C2=O)c2ccccc21` here?
Its AC50 is 43.7 µM (active).

Which results are given for `O=C(/C=C/c1cccs1)Nc1sc2c(c1C(=O)O)CCCC2`?
EC50 [14]: > 20 µM (inactive); IC50 (HEK293 [15]): > 20 µM (inactive); EC50 (HEK293 [16]): 8.28 µM (active); IC50 (HEK293 [17]): > 20 µM (inactive); IC50 (HEK293 [18]): > 20 µM (inactive); IC50 (HEK293 [19]): > 20 µM (inactive); IC50 (Tumor necrosis factor): > 20 µM (inactive); IC50 [20]: 6.42 µM (active); IC50 (HEK293 [21]): > 20 µM (inactive)

For `Clc1ccc(CSc2nnc(-c3ccccn3)n2Cc2ccco2)cc1Cl`, which EC50 [22] is on record?
The EC50 was > 32 µM (inactive).

What about the EC50 (Mu-type opioid receptor [23]) of the same compound?
The EC50 was > 32 µM (inactive).

What about the IC50 [24] of the same compound?
The IC50 was > 32 µM (inactive).

And the IC50 (Mu-type opioid receptor [25])?
Its IC50 is > 32 µM (inactive).

With `CSCCC(NS(=O)(=O)c1ccccc1F)C(=O)NNC(=O)c1csc(N2CCOCC2)n1` (stereo unspecified) as the compound, how does the EC50 [26] read?
Its EC50 is 8.88 µM (active).

And the EC50 [27]?
The EC50 was 10.6 µM (active).

What about the EC50 [28] of the same compound?
The EC50 was 26.4 µM (active).

And the IC50 [29]?
Its IC50 is 70.1 µM (active).
